According to US9353067B2, “Heterocyclic compounds and uses thereof in the treatment of sexual disorders” (ATIR Holding S.A., priority 2011, dated 2016):

Experiments:
Adrenergic α1 receptor = experiment: Competitive binding, prazosin radioligand; set-up: species or system Wistar rat
Experimental: (§1) R-55 (which comprises a 3-hydroxyphenyl moiety) and the structurally related compounds N-108 (2-{[4-(2-ethoxyphenyl)piperazin-1-yl]methyl}quinazolin-4(3H)-one) and B-39 (7-chloro-2-((5,6-dihydro-4-(2-methoxyphenyl)pyridin-1(2H)-yl)methyl)quinazolin-4(3H)-one) were assayed for competitive binding to a variety of receptors, including D4.4 type dopamine receptor, in order to assess their specificity for D4.4 dopamine receptors.
(§2) The receptors were expressed as human recombinant proteins in CHO cells, except for adrenergic α1 and α2 receptors which were expressed in Wistar rat brain and cerebral cortex cells, respectively, and melanocortin MC4 receptor which was expressed in human recombinant HEK-293 cells. Binding was determined using the following radioligands in the presence of various concentrations of the tested compound:
0.25 nM prazosin for adrenergic α1 receptor,
(§3) The binding assays were performed in accordance with procedures described in the literature (Greengrass & Bremner, 1979; Boyajian & Leslie, 1987; Broadhurst, 1988; Lewis, 2001; Sutton, 1995; Dearry, 1990; Zhou, 1990; Grandy, 1989; Hayes, 1992; Sokoloff, 1990; Van Tol, 1991; Van Tol 1992; Sunahara, 1991; Weinshank, 1991; Schioth, 1996; Schioth 1997; Martin & Humphrey, 1994; May, 2003; Wolf & Schutz, 1997).

Adrenergic α2 receptor = experiment: Competitive binding, rauwolscine radioligand; set-up: species or system Wistar rat
Experimental: as §1, §2
0.7 nM rauwolscine for adrenergic α2 receptor,
as §3

CRF1 receptor = CRF1 receptor (Homo sapiens (Human), UniProt P34998); experiment: Competitive binding, (Tyr0)-CRF radioligand
Chain of CRF1 receptor (P34998 24-415): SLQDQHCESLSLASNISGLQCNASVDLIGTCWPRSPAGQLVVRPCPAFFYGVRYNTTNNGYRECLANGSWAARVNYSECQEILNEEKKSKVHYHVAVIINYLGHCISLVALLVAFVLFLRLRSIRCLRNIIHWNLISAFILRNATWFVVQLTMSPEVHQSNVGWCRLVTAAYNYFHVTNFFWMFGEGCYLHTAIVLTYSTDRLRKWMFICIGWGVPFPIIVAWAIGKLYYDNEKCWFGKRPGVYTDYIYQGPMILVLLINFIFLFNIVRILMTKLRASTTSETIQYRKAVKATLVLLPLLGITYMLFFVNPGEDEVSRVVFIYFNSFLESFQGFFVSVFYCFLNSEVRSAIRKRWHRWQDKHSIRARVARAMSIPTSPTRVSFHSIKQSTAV
Experimental: as §1, §2
0.05 nM)(Tyr^0)-corticotropin releasing factor (CRF) for corticotropin releasing factor CRF1 receptor,
as §3

Dopamine D1 receptor = Dopamine D1 receptor (Homo sapiens (Human), UniProt P21728); experiment: Competitive binding, SCH-23390 radioligand
Chain of Dopamine D1 receptor (P21728 whole entry): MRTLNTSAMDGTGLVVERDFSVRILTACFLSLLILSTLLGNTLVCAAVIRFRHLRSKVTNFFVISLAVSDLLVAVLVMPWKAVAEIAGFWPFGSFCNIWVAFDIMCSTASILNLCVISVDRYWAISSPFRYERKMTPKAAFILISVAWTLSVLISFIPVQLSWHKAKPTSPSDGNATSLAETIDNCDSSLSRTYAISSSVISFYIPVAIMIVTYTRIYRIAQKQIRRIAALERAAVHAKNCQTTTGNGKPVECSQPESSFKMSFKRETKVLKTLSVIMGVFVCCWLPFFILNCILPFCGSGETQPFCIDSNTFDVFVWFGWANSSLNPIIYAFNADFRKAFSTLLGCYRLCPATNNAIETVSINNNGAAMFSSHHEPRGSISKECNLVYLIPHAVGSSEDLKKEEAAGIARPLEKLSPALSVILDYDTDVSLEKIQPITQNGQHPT
Experimental: as §1, §2
(§4) 1.4 nM and 2 nM SCH-23390, respectively, for dopamine D1 and D5 receptors,
as §3

Dopamine D5 receptor = Dopamine D5 receptor (Homo sapiens (Human), UniProt P21918); experiment: Competitive binding, SCH-23390 radioligand
Chain of Dopamine D5 receptor (P21918 whole entry): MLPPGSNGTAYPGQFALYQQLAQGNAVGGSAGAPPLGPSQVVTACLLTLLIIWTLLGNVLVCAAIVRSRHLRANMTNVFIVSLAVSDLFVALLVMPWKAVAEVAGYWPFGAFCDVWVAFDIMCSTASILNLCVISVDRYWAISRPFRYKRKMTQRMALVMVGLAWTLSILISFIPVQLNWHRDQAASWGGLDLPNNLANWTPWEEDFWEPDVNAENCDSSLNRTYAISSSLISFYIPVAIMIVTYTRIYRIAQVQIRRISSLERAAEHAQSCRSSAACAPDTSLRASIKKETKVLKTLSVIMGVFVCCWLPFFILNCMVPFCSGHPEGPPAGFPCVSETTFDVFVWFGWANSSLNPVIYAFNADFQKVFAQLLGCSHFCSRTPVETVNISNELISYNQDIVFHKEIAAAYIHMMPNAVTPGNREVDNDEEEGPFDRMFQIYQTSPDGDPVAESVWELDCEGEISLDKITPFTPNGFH
Experimental: as §1, §2, §4, §3

Dopamine D2S receptor = Dopamine D2S receptor (Homo sapiens (Human), UniProt P14416); experiment: Competitive binding, spiperone radioligand
Chain of Dopamine D2S receptor (P14416 other isoform, or with tags, fused parts or gaps): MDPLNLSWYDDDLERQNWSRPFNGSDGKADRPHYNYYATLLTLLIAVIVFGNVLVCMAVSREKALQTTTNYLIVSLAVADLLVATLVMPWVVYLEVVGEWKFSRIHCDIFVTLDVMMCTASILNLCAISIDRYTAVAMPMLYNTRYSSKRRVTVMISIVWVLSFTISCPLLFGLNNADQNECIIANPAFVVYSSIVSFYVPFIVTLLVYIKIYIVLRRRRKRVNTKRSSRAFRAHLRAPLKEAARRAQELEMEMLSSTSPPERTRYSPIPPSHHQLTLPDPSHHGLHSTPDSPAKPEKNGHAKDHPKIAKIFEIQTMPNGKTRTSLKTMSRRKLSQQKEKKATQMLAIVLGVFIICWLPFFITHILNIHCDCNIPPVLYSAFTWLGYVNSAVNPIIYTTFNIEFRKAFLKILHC
Experimental: as §1, §2
(§5) 0.16 nM, 0.7 nM and 1.2 nM spiperone, respectively, for dopamine D2S, D3 and D4.4 receptors,
as §3

Dopamine D3 receptor = Dopamine D3 receptor (Homo sapiens (Human), UniProt P35462); experiment: Competitive binding, spiperone radioligand
Chain of Dopamine D3 receptor (P35462 whole entry): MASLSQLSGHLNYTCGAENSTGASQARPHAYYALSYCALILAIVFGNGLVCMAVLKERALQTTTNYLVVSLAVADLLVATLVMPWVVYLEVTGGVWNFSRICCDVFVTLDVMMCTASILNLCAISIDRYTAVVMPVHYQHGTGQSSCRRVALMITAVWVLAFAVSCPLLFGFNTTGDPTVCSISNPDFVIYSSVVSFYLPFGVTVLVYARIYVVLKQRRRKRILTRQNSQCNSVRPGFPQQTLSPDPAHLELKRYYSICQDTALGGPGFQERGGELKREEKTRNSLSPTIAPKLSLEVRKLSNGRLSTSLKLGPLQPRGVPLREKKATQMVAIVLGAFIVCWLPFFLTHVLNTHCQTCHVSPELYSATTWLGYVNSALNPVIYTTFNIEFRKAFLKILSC
Experimental: as §1, §2, §5, §3

Dopamine D4.4 receptor = Dopamine D4.4 receptor (Homo sapiens (Human), UniProt P21917); experiment: Competitive binding, spiperone radioligand
Chain of Dopamine D4.4 receptor (P21917 whole entry): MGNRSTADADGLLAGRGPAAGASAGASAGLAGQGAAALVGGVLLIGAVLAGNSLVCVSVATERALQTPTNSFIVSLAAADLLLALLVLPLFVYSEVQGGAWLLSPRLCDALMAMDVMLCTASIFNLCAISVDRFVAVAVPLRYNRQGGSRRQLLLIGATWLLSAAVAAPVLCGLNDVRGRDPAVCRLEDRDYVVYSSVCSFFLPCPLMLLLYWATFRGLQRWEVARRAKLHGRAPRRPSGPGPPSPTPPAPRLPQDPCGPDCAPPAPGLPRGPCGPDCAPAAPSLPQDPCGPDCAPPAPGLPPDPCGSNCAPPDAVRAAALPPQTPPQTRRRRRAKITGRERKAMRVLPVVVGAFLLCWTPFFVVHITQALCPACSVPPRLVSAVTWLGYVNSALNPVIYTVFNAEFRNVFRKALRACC
Experimental: as §1, §2, §5, §3

[1] = target: Melanocortin MC4 receptor (Homo sapiens (Human), UniProt P32245); experiment: Competitive binding, NDP-α-MSH radioligand
Chain of Melanocortin MC4 receptor (P32245 whole entry): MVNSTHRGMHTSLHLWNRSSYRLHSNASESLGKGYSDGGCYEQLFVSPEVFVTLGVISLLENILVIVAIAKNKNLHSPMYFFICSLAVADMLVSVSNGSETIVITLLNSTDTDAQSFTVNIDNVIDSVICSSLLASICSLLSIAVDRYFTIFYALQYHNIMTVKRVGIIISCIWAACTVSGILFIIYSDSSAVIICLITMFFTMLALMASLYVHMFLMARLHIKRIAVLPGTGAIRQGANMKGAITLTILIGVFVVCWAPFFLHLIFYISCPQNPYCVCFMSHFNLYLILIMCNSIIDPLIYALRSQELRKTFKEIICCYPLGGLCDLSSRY
Experimental: as §1, §2
0.02 nM NDP-α-MSH for melanocortin MC4 receptor,
as §3

[2] = target: Serotonin 5-HT1A receptor (Homo sapiens (Human), UniProt P08908); experiment: Competitive binding, 8-OH-DPAT radioligand
Chain of Serotonin 5-HT1A receptor (P08908 whole entry): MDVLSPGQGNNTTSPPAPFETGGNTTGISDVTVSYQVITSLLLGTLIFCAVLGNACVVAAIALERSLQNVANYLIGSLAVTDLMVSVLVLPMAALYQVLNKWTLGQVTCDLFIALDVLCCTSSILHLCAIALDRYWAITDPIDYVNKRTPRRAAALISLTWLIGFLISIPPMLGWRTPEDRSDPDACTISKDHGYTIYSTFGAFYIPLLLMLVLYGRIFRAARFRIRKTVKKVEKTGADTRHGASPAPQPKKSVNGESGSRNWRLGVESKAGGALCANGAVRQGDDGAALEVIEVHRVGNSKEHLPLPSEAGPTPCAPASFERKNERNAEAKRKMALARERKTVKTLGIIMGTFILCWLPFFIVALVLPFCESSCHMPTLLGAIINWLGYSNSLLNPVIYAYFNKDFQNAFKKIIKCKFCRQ
Experimental: as §1, §2
1.5 nM 8-OH-DPAT for serotonin 5-HT1A receptor, and
as §3

[3] = target: Serotonin 5-HT2C receptor (Homo sapiens (Human), UniProt P28335); experiment: Competitive binding, mesulergine radioligand
Chain of Serotonin 5-HT2C receptor (P28335 33-458): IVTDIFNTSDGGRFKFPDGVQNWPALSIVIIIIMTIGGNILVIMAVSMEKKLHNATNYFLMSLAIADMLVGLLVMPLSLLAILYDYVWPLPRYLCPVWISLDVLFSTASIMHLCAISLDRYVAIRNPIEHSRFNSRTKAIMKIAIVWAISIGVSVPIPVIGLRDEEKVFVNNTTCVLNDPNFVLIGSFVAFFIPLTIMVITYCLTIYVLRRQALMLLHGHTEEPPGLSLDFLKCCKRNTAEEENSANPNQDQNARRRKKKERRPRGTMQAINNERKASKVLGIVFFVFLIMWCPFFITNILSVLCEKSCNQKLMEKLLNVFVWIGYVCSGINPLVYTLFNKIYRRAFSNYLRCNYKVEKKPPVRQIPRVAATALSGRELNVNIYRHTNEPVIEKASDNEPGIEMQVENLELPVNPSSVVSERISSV
Experimental: as §1, §2
1 nM mesulergine for serotonin 5-HT2C receptor.
as §3

SMILES: COc1ccccc1C1=CCN(Cc2nc3cc(Cl)ccc3c(=O)[nH]2)CC1 [Compound B-39, 7-chloro-2-((5,6-dihydro-4-(2-methoxyphenyl)pyridin-1(2H)-yl)methyl)quinazolin-4(3H)-one, reference compound]
- Competitive binding (%) at 5 μM of tested compound (Adrenergic α1 receptor): 54%
- Competitive binding (%) at 5 μM of tested compound (Adrenergic α2 receptor): 72%
- Competitive binding (%) at 5 μM of tested compound (CRF1 receptor): −5%
- Competitive binding (%) at 5 μM of tested compound (Dopamine D1 receptor): 4%
- Competitive binding (%) at 5 μM of tested compound (Dopamine D5 receptor): 7%
- Competitive binding (%) at 5 μM of tested compound (Dopamine D2S receptor): 46%
- Competitive binding (%) at 5 μM of tested compound (Dopamine D3 receptor): 32%
- Competitive binding (%) at 5 μM of tested compound (Dopamine D4.4 receptor; Dopamine D4.4 receptor, 5 μM): 57%
- binding affinity to the D4.4 receptor (in words) (Dopamine D4.4 receptor; Table 8): high binding affinity
- Competitive binding (%) at 5 μM of tested compound [1]: 5%
- Competitive binding (%) at 5 μM of tested compound [2]: 89%
- Competitive binding (%) at 5 μM of tested compound [3]: 56%
